Reference: the supplement of paper PMC10627819

What was measured:
B. subtilis 168 [1] = assay: Bliss interaction score (quartile over a dose matrix) (fitness difference); higher = more antagonism (negative = synergy)
How it was run: (§1)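 At entry into stationary phase, OD595 was recorded and divided by the robust mean of the no-drug wells on that plate, with any value above 1 set to 1. This gives the fitness measure used throughout. Single-drug fitness was inferred from combination data, and the Bliss score, observed minus product-expected fitness, is shown as quartiles across technical, biological and donor/recipient replicates.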

S. pneumoniae D39V [2] = assay: as above
How it was run: as §1

S. aureus Newman [3] = assay: as above
How it was run: as §1

S. aureus DSM 20231 = assay: as above
How it was run: as §1

B. subtilis 168 [4] = assay: fitness (endpoint OD595 vs no drug) (fraction); higher = more growth
How it was run: (§2)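 Background-subtracted growth curves were the basis for fitness, taken as the optical density at entry into stationary phase over the robust mean of no-drug control wells. A cap of 1 was applied. The curves came from OD595 readings every 30 min for 14 h at 37 °C, in 384-well plates seeded at OD595 0.01 with 30 µl, or 55 µl for S. pneumoniae.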

S. pneumoniae D39V [5] = assay: as above
How it was run: as §2

S. aureus Newman [6] = assay: as above
How it was run: as §2
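Throughout, for Bliss interaction score (quartile over a dose matrix): first quartile when negative (synergy) and third quartile when positive (antagonism).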

CNC(C)C1CCC(N)C(OC2C(N)CC(N)C(OC3OCC(C)(O)C(NC)C3O)C2O)O1 (stereo unspecified) [Gentamicin] + Cc1ncc([N+](=O)[O-])n1CCO [Metronidazole]
main component drawn
Conditions | Bliss interaction score
B. subtilis 168 [1] | -0.0531
S. aureus DSM 20231 | 0.0225
S. aureus Newman [3] | 0.0412
S. pneumoniae D39V [2] | 0.0587

fitness, main component drawn
Conditions | partner 0.625 µg/mL | partner 0.781 µg/mL | partner 1.073 µg/mL | partner 1.25 µg/mL | partner 1.562 µg/mL | partner 2.145 µg/mL | partner 2.5 µg/mL | partner 3.124 µg/mL | partner 4.29 µg/mL | partner 5 µg/mL
B. subtilis 168 [4], first compound 0.0625 µg/mL | 0.897 | – | – | 0.926 | – | – | 0.922 | – | – | –
B. subtilis 168 [4], first compound 0.25 µg/mL | 0.0729 | – | – | – | – | – | 0.0383 | – | – | –
S. aureus Newman [6], first compound 0.5 µg/mL | 0.995 | 0.92 | – | 0.979 | 0.911 | – | ≥ 1 | 0.913 | – | –
S. aureus Newman [6], first compound 1 µg/mL | ≥ 1 | ≥ 1 | – | 0.974 | ≥ 1 | – | 0.986 | ≥ 1 | – | –
S. aureus Newman [6], first compound 2 µg/mL | ≥ 1 | ≥ 1 | – | 0.981 | ≥ 1 | – | ≥ 1 | ≥ 1 | – | –
S. pneumoniae D39V [5], first compound 2 µg/mL | – | – | 0.983 | 0.985 | – | 0.864 | ≥ 1 | – | 0.8 | 0.996
S. pneumoniae D39V [5], first compound 4 µg/mL | – | – | 0.976 | 0.992 | – | 0.987 | ≥ 1 | – | 0.827 | 0.986
S. pneumoniae D39V [5], first compound 8 µg/mL | – | – | 0.98 | 0.955 | – | 0.96 | 0.959 | – | 0.942 | 0.959

fitness, S. aureus Newman [6], one replicate, main component drawn
Conditions | first compound 0.375 µg/mL | first compound 0.75 µg/mL | first compound 1.5 µg/mL
partner 0.625 µg/mL | 0.94 | 0.944 | 0.951
partner 1.25 µg/mL | ≥ 1 | ≥ 1 | ≥ 1
partner 2.5 µg/mL | ≥ 1 | ≥ 1 | ≥ 1

CNC(C)C1CCC(N)C(OC2C(N)CC(N)C(OC3OCC(C)(O)C(NC)C3O)C2O)O1 (stereo unspecified) [Gentamicin] + Cc1onc(-c2ccccc2)c1C(=O)N[C@@H]1C(=O)N2[C@@H]1SC(C)(C)[C@@H]2C(=O)O [Oxacillin]
main component drawn
Conditions | Bliss interaction score
B. subtilis 168 [1] | -0.0859
S. aureus DSM 20231 | 0.0545
S. aureus Newman [3] | 0.0666
S. pneumoniae D39V [2] | 0.104

main component drawn
Conditions | fitness
B. subtilis 168 [4], first compound 0.0625 µg/mL, partner 0.002 µg/mL | 0.899
B. subtilis 168 [4], first compound 0.0625 µg/mL, partner 0.004 µg/mL | 0.82
B. subtilis 168 [4], first compound 0.125 µg/mL, partner 0.002 µg/mL | 0.275
B. subtilis 168 [4], first compound 0.125 µg/mL, partner 0.004 µg/mL | 0.0851
B. subtilis 168 [4], first compound 0.125 µg/mL, partner 0.008 µg/mL | 0.0748
B. subtilis 168 [4], first compound 0.25 µg/mL, partner 0.002 µg/mL | 0.0462
B. subtilis 168 [4], first compound 0.25 µg/mL, partner 0.004 µg/mL | 0.0441
B. subtilis 168 [4], first compound 0.25 µg/mL, partner 0.008 µg/mL | 0.0454
S. aureus Newman [6], first compound 0.5 µg/mL, partner 0.0156 µg/mL | 0.82
S. aureus Newman [6], first compound 0.5 µg/mL, partner 0.0312 µg/mL | 0.782
S. aureus Newman [6], first compound 0.5 µg/mL, partner 0.0625 µg/mL | 0.672
S. aureus Newman [6], first compound 1 µg/mL, partner 0.0156 µg/mL | 0.851
S. aureus Newman [6], first compound 1 µg/mL, partner 0.0312 µg/mL | 0.776
S. aureus Newman [6], first compound 1 µg/mL, partner 0.0625 µg/mL | 0.765
S. aureus Newman [6], first compound 2 µg/mL, partner 0.0156 µg/mL | 0.901
S. aureus Newman [6], first compound 2 µg/mL, partner 0.0625 µg/mL | 0.666
S. pneumoniae D39V [5], first compound 2 µg/mL, partner 0.005 µg/mL | 0.985
S. pneumoniae D39V [5], first compound 2 µg/mL, partner 0.01 µg/mL | 0.995
S. pneumoniae D39V [5], first compound 2 µg/mL, partner 0.02 µg/mL | 0.953
S. pneumoniae D39V [5], first compound 2 µg/mL, partner 0.04 µg/mL | 0.55
S. pneumoniae D39V [5], first compound 4 µg/mL, partner 0.005 µg/mL | 0.999
S. pneumoniae D39V [5], first compound 4 µg/mL, partner 0.01 µg/mL | 0.982
S. pneumoniae D39V [5], first compound 4 µg/mL, partner 0.02 µg/mL | 0.947
S. pneumoniae D39V [5], first compound 4 µg/mL, partner 0.04 µg/mL | 0.549
S. pneumoniae D39V [5], first compound 8 µg/mL, partner 0.005 µg/mL | 0.963
S. pneumoniae D39V [5], first compound 8 µg/mL, partner 0.01 µg/mL | 0.985
S. pneumoniae D39V [5], first compound 8 µg/mL, partner 0.02 µg/mL | 0.939
S. pneumoniae D39V [5], first compound 8 µg/mL, partner 0.04 µg/mL | 0.553

fitness, one replicate, main component drawn
Conditions | partner 0.0078 µg/mL | partner 0.0155 µg/mL | partner 0.0156 µg/mL | partner 0.031 µg/mL | partner 0.0312 µg/mL | partner 0.0625 µg/mL | partner 0.075 µg/mL | partner 0.15 µg/mL | partner 0.3 µg/mL
B. subtilis 168 [4], first compound 0.0625 µg/mL | ≥ 1 | 0.976 | – | 0.948 | – | – | 0.663 | 0.033 | 0.0409
B. subtilis 168 [4], first compound 0.125 µg/mL | 0.923 | 0.907 | – | 0.92 | – | – | 0.0517 | 0.0783 | 0.0465
B. subtilis 168 [4], first compound 0.25 µg/mL | 0.265 | 0.218 | – | 0.171 | – | – | 0.0546 | 0.0554 | 0.0541
S. aureus Newman [6], first compound 0.375 µg/mL | – | – | 0.785 | – | 0.736 | 0.648 | – | – | –
S. aureus Newman [6], first compound 0.75 µg/mL | – | – | 0.741 | – | 0.709 | 0.632 | – | – | –
S. aureus Newman [6], first compound 1.5 µg/mL | – | – | 0.581 | – | 0.106 | 0.113 | – | – | –

Cc1onc(-c2ccccc2)c1C(=O)N[C@@H]1C(=O)N2[C@@H]1SC(C)(C)[C@@H]2C(=O)O [Oxacillin] + CN(C)c1cc(NC(=O)CNC(C)(C)C)c(O)c2c1C[C@H]1C[C@H]3[C@H](N(C)C)C(O)=C(C(N)=O)C(=O)[C@@]3(O)C(O)=C1C2=O [Tigecycline]
Conditions | Bliss interaction score
B. subtilis 168 [1] | 0.0355
S. aureus DSM 20231 | -0.0365
S. aureus Newman [3] | 0.0567
S. pneumoniae D39V [2] | 0.0953

Conditions | fitness
B. subtilis 168 [4], first compound 0.002 µg/mL, partner 0.039 µg/mL | ≥ 1
B. subtilis 168 [4], first compound 0.002 µg/mL, partner 0.078 µg/mL | 0.976
B. subtilis 168 [4], first compound 0.002 µg/mL, partner 0.156 µg/mL | 0.992
B. subtilis 168 [4], first compound 0.004 µg/mL, partner 0.039 µg/mL | 0.963
B. subtilis 168 [4], first compound 0.004 µg/mL, partner 0.078 µg/mL | 0.943
B. subtilis 168 [4], first compound 0.004 µg/mL, partner 0.156 µg/mL | 0.95
B. subtilis 168 [4], first compound 0.008 µg/mL, partner 0.039 µg/mL | 0.998
B. subtilis 168 [4], first compound 0.008 µg/mL, partner 0.078 µg/mL | 0.945
B. subtilis 168 [4], first compound 0.008 µg/mL, partner 0.156 µg/mL | 0.962
S. aureus Newman [6], first compound 0.0156 µg/mL, partner 0.039 µg/mL | 0.794
S. aureus Newman [6], first compound 0.0156 µg/mL, partner 0.078 µg/mL | 0.798
S. aureus Newman [6], first compound 0.0156 µg/mL, partner 0.156 µg/mL | 0.778
S. aureus Newman [6], first compound 0.0312 µg/mL, partner 0.039 µg/mL | 0.751
S. aureus Newman [6], first compound 0.0312 µg/mL, partner 0.078 µg/mL | 0.762
S. aureus Newman [6], first compound 0.0312 µg/mL, partner 0.156 µg/mL | 0.745
S. aureus Newman [6], first compound 0.0625 µg/mL, partner 0.039 µg/mL | 0.641
S. aureus Newman [6], first compound 0.0625 µg/mL, partner 0.078 µg/mL | 0.663
S. aureus Newman [6], first compound 0.0625 µg/mL, partner 0.156 µg/mL | 0.688
S. pneumoniae D39V [5], first compound 0.01 µg/mL, partner 0.65 µg/mL | 0.928
S. pneumoniae D39V [5], first compound 0.01 µg/mL, partner 1.3 µg/mL | 0.951
S. pneumoniae D39V [5], first compound 0.01 µg/mL, partner 2.6 µg/mL | 0.957
S. pneumoniae D39V [5], first compound 0.02 µg/mL, partner 0.65 µg/mL | 0.904
S. pneumoniae D39V [5], first compound 0.02 µg/mL, partner 1.3 µg/mL | 0.891
S. pneumoniae D39V [5], first compound 0.02 µg/mL, partner 2.6 µg/mL | 0.875
S. pneumoniae D39V [5], first compound 0.04 µg/mL, partner 1.3 µg/mL | 0.463
S. pneumoniae D39V [5], first compound 0.04 µg/mL, partner 2.6 µg/mL | 0.531

fitness, B. subtilis 168 [4], one replicate
Conditions | first compound 0.0078 µg/mL | first compound 0.0155 µg/mL | first compound 0.031 µg/mL | first compound 0.075 µg/mL | first compound 0.15 µg/mL | first compound 0.3 µg/mL
partner 0.039 µg/mL | – | – | – | 0.507 | 0.0264 | 0.0457
partner 0.078 µg/mL | – | – | – | 0.549 | 0.0459 | 0.0479
partner 0.125 µg/mL | ≥ 1 | 0.964 | 0.968 | – | – | –
partner 0.156 µg/mL | – | – | – | 0.607 | 0.049 | 0.0616
partner 0.25 µg/mL | 0.962 | ≥ 1 | 0.923 | – | – | –
partner 0.5 µg/mL | ≥ 1 | 0.976 | 0.857 | – | – | –
